Assay results: patent publication US20250368666A1, “INDAZOLE COMPOUNDS” (TYRA BIOSCIENCES, INC., priority 2022, published 2025)

Experiments:
FGFR3 (V555M) = target: T1, FGFR3 (V555M) (Homo sapiens, UniProt P22607, V555M); experiment: Kinase binding assay (kinase-tagged T7 phage, affinity beads, qPCR), Kd; conditions: V555M mutant; read-out: FGFR3 (V555M) (Kd nM)
T1 construct: made in house; host or cells: E. coli (BL21-derived), T7 phage
Method in brief: (§1)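 First, phage lysates carrying tagged kinase are made in E. coli at 32° C. Next, they are combined with blocked biotin-ligand streptavidin beads and compound at 0.9% final DMSO. Finally, eluted kinase is measured by qPCR and Kd is fitted with the Hill equation.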

FGFR1 = target: T2, FGFR1 (Homo sapiens, UniProt P11362); experiment: as above; conditions: read-out: FGFR1 (Kd nM)
T2 construct: made in house; host or cells: E. coli (BL21-derived), T7 phage
T2 sequence (P11362 22-822): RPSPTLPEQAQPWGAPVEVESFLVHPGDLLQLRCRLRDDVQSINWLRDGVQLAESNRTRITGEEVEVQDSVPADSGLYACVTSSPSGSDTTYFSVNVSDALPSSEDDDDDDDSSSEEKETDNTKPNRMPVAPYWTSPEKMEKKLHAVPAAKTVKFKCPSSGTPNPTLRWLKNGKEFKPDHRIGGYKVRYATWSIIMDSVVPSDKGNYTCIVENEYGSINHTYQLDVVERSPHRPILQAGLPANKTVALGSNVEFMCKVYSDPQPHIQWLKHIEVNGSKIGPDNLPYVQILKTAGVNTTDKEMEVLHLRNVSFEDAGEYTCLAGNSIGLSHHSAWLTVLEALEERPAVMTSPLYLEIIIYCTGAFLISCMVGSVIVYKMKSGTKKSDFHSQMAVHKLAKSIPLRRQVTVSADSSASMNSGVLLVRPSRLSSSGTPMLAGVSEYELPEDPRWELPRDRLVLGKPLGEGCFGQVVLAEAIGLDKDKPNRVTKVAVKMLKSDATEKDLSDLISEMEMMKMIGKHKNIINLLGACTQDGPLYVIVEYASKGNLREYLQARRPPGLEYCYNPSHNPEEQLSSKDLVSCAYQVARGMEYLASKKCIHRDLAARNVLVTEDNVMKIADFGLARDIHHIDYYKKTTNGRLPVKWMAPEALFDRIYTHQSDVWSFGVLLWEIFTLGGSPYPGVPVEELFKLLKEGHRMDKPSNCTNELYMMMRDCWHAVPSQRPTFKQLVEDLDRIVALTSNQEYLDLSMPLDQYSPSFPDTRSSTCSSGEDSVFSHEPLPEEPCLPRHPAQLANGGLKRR
Method in brief: as §1

FGFR2 = target: T3, FGFR2 (Homo sapiens, UniProt P21802); experiment: as above; conditions: read-out: FGFR2 (Kd nM)
T3 construct: made in house; host or cells: E. coli (BL21-derived), T7 phage
T3 sequence (P21802 22-821): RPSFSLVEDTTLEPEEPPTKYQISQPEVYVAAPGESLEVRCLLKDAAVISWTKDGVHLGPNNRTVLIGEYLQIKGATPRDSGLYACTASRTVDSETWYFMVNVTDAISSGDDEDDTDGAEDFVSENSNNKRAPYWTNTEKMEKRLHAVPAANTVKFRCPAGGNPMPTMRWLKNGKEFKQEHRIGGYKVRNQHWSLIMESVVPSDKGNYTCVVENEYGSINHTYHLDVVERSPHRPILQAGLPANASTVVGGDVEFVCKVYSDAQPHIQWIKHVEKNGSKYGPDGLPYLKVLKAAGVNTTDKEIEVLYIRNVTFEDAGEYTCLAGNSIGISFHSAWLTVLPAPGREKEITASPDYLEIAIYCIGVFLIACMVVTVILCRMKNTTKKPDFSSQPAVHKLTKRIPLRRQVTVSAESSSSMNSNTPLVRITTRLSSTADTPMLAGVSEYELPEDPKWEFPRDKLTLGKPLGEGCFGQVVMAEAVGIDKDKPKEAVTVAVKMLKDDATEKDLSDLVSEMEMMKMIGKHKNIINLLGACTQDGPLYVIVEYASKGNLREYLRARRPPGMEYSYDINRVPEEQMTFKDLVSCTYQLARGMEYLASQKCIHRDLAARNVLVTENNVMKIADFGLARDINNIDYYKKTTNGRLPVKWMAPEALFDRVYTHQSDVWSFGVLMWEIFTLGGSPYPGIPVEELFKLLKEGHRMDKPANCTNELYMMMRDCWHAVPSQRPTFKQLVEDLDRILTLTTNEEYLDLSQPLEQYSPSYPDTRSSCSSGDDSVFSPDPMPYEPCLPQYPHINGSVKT
Method in brief: as §1

FGFR4 = target: T4, FGFR4 (Homo sapiens, UniProt P22455); experiment: as above; conditions: read-out: FGFR4 (Kd nM)
T4 construct: made in house; host or cells: E. coli (BL21-derived), T7 phage
T4 sequence (P22455 22-802): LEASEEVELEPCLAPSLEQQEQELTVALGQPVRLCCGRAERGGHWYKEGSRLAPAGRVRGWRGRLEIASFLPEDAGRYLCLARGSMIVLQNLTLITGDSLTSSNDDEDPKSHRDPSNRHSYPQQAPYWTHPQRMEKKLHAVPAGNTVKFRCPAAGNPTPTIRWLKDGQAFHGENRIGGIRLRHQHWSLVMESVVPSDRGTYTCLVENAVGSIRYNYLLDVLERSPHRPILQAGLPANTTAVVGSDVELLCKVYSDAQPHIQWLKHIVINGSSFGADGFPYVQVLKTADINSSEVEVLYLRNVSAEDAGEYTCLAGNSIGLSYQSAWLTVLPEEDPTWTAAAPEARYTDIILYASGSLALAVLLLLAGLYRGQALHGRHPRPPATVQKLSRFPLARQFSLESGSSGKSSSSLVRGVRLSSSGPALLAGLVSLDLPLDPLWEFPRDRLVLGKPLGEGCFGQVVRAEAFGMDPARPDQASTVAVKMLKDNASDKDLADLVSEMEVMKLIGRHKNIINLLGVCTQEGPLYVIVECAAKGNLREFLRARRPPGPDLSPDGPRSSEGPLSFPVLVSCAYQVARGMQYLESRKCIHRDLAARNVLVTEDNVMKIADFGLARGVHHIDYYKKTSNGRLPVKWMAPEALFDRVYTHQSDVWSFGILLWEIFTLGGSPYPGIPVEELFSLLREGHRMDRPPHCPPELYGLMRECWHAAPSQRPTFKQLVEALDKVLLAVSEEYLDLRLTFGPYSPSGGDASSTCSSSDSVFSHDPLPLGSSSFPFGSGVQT
Method in brief: as §1

FGFR3 = target: T5, FGFR3 (Homo sapiens, UniProt P22607); experiment: as above; conditions: read-out: FGFR3 (Kd nM)
T5 construct: made in house; host or cells: E. coli (BL21-derived), T7 phage
T5 sequence (P22607 23-806): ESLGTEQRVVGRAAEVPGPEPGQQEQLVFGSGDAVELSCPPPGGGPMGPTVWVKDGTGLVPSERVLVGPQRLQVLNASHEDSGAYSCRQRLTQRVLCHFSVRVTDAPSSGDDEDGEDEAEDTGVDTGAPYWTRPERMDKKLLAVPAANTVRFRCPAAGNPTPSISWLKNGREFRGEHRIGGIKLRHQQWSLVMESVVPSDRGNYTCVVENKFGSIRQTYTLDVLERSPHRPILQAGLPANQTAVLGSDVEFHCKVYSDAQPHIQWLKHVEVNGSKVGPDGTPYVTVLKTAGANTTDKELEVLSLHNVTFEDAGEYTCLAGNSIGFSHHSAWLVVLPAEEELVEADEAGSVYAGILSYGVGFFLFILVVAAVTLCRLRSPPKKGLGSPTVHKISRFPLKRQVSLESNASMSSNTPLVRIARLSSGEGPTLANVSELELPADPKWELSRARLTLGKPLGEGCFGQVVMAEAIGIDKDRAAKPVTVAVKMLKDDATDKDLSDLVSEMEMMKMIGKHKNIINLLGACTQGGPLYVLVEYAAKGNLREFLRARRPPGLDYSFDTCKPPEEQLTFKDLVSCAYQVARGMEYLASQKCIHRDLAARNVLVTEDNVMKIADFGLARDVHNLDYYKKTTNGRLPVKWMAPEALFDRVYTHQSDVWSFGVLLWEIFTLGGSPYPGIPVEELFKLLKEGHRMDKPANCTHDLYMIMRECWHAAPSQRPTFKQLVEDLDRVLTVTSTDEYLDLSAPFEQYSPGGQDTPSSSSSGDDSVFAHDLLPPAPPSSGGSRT
Method in brief: as §1

[1] = test system: HuH7 cell line (FGF19 amplification); experiment: Cancer cell line cell viability assay (Cell Titer-Glo), 120 hr; type: cell-based; conditions: Homo sapiens, Huh-7
Method in brief: (§2)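 Luminescent ATP read-out (Cell Titer-Glo 2.0) after compound exposure, normalised to DMSO-only wells. Dosing: 9 concentrations, 4-fold steps, top 3 μM, triplicates. IC50 derived by log(inhibitor) vs. response 4-parameter fit.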

[2] = test system: KATO-III cell line (FGFR2 amplification); experiment: Cancer cell line cell viability assay (Cell Titer-Glo), 72 hr; type: cell-based; conditions: Homo sapiens, KATO III
Method in brief: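 5,000-20,000 cells/well o/n; cpd 9-pt 4x dil from 3 μM, n=3; 37° C/5% CO2; CTG 2.0 lumi; % DMSO ctrl; 4PL IC50.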

[3] = test system: KG-1 cell line (FGFR 1-fusion); experiment: as above; type: cell-based; conditions: Homo sapiens, KG-1, KG-1 cell line (FGFR1-fusion)
Method in brief: as §2

[4] = test system: RT112/84 cell line (FGFR3-fusion); experiment: as above; type: cell-based; conditions: Homo sapiens, RT112/84, RT112/84 cell line (FGFR3-fusion)
Method in brief: as §2

T1 sequence (P22607 23-806 V555M): as the sequence (P22607 23-806) above, with V533M counted along it

| SMILES | Kd (FGFR3 (V555M)) [nM] | Kd (FGFR1) [nM] | Kd (FGFR2) [nM] | Kd (FGFR4) [nM] | Kd (FGFR3) [nM] | IC50 [1] [nM] | IC50 [2] [nM] | IC50 [3] [nM] | IC50 [4] [nM] |
| --- | --- | --- | --- | --- | --- | --- | --- | --- | --- |
| COc1cc2[nH]nc(-c3cnc(N4CC(C)(NCC(F)F)C4)c(C#N)c3)c2cc1O[C@H](C)c1c(Cl)cncc1Cl [Example 42, 5-[5-[(1R)-1-(3,5-dichloro-4-pyridyl)ethoxy]-6-methoxy-1H-indazol-3-yl]-2-[3-(2,2-difluoroethylamino)-3-methyl-azetidin-1-yl]pyridine-3-carbonitrile] | 1 to 50 | 1 to 50 | 1 to 50 | 1 to 50 | 1 to 50 | 0.1 to 50 | 50 to 200 | 50 to 200 | 0.1 to 50 |
| C[C@@H](Oc1ccc2[nH]nc(-c3cnc(N4CC(C)(N5CCOCC5)C4)nc3)c2c1)c1c(Cl)cncc1Cl [Example 43, (R)-4-(1-(5-(5-(1-(3,5-dichloropyridin-4-yl)ethoxy)-1H-indazol-3-yl)pyrimidin-2-yl)-3-methylazetidin-3-yl)morpholine] | 1 to 50 | 1 to 50 | 1 to 50 | 1 to 50 | 1 to 50 | 0.1 to 50 | 50 to 200 | 50 to 200 | 0.1 to 50 |
| C[C@@H](Oc1ccc2[nH]nc(-c3cnc(N4CC(C)(N(C)C)C4)nc3)c2c1)c1c(Cl)cncc1Cl [Example 44, (R)-1-(5-(5-(1-(3,5-dichloropyridin-4-yl)ethoxy)-1H-indazol-3-yl)pyrimidin-2-yl)-N,N,3-trimethylazetidin-3-amine] | 1 to 50 | 1 to 50 | 1 to 50 | 1 to 50 | 1 to 50 | 0.1 to 50 | 50 to 200 | 50 to 200 | 0.1 to 50 |
| COc1cc2[nH]nc(-c3cnc(N4CC(C)(NCCO)C4)c(C#N)c3)c2cc1O[C@H](C)c1c(Cl)cncc1Cl [Example 47, 5-[5-[(1R)-1-(3,5-dichloro-4-pyridyl)ethoxy]-6-methoxy-1H-indazol-3-yl]-2-[3-(2-hydroxyethylamino)-3-methyl-azetidin-1-yl]pyridine-3-carbonitrile] | 1 to 50 | 1 to 50 | 1 to 50 | 1 to 50 | 1 to 50 | 0.1 to 50 | 50 to 200 | 200 to 1000 | 50 to 200 |
| CC(C)NC1(C)CN(c2ncc(-c3n[nH]c4ccc(O[C@H](C)c5c(Cl)cncc5Cl)cc34)cc2C#N)C1 [Example 48, (R)-5-(5-(1-(3,5-dichloropyridin-4-yl)ethoxy)-1H-indazol-3-yl)-2-(3-(isopropylamino)-3-methylazetidin-1-yl)nicotinonitrile] | 1 to 50 | 1 to 50 | 1 to 50 | 1 to 50 | 1 to 50 | 0.1 to 50 | 200 to 1000 | 200 to 1000 | 50 to 200 |
| COc1cc2[nH]nc(-c3cnc(N4CC(C)(CN(C)C)C4)c(C#N)c3)c2cc1O[C@H](C)c1c(Cl)cncc1Cl [Example 49, (R)-5-(5-(1-(3,5-dichloropyridin-4-yl)ethoxy)-6-methoxy-1H-indazol-3-yl)-2-(3-((dimethylamino)methyl)-3-methylazetidin-1-yl)nicotinonitrile] | 1 to 50 | 1 to 50 | 1 to 50 | 1 to 50 | 1 to 50 | 0.1 to 50 | 0.1 to 50 | 0.1 to 50 | 0.1 to 50 |
| COc1cc2[nH]nc(-c3cnc(N4CC(C)(CNC(C)C)C4)c(C#N)c3)c2cc1O[C@H](C)c1c(Cl)cncc1Cl [Example 50, (R)-5-(5-(1-(3,5-dichloropyridin-4-yl)ethoxy)-6-methoxy-1H-indazol-3-yl)-2-(3-((isopropylamino)methyl)-3-methylazetidin-1-yl)nicotinonitrile] | 1 to 50 | 1 to 50 | 1 to 50 | 1 to 50 | 1 to 50 | 0.1 to 50 | 0.1 to 50 | 0.1 to 50 | 0.1 to 50 |
| COc1cc2[nH]nc(-c3cnc(N4CC(C)(N(C)C)C4)nc3)c2cc1O[C@H](C)c1c(Cl)cncc1Cl [Example 51, (R)-1-(5-(5-(1-(3,5-dichloropyridin-4-yl)ethoxy)-6-methoxy-1H-indazol-3-yl)pyrimidin-2-yl)-N,N,3-trimethylazetidin-3-amine] | 1 to 50 | 1 to 50 | 1 to 50 | 1 to 50 | 1 to 50 | 0.1 to 50 | 0.1 to 50 | 0.1 to 50 | 0.1 to 50 |
| C[C@@H](Oc1ccc2[nH]nc(-c3cnc(N4CC(C)(NCCO)C4)c(C#N)c3)c2c1)c1c(Cl)cncc1Cl [Example 52, 5-[5-[(1R)-1-(3,5-dichloro-4-pyridyl)ethoxy]-1H-indazol-3-yl]-2-[3-(2-hydroxyethylamino)-3-methyl-azetidin-1-yl]pyridine-3-carbonitrile] | 1 to 50 | 1 to 50 | 1 to 50 | 1 to 50 | 1 to 50 | 0.1 to 50 | 50 to 200 | 200 to 1000 | 50 to 200 |
| C[C@@H](Oc1ccc2[nH]nc(-c3cnc(N4CC(C)(NCC(C)(C)O)C4)c(C#N)c3)c2c1)c1c(Cl)cncc1Cl [Example 54, (R)-5-(5-(1-(3,5-dichloropyridin-4-yl)ethoxy)-1H-indazol-3-yl)-2-(3-((2-hydroxy-2-methylpropyl)amino)-3-methylazetidin-1-yl)nicotinonitrile] | 1 to 50 | 1 to 50 | 1 to 50 | 1 to 50 | 1 to 50 | 0.1 to 50 | 200 to 1000 | 200 to 1000 | 50 to 200 |
| C[C@@H](O)CNC1(C)CN(c2ncc(-c3n[nH]c4ccc(O[C@H](C)c5c(Cl)cncc5Cl)cc34)cc2C#N)C1 [Example 56, 5-(5-((R)-1-(3,5-dichloropyridin-4-yl)ethoxy)-1H-indazol-3-yl)-2-(3-(((R)-2-hydroxypropyl)amino)-3-methylazetidin-1-yl)nicotinonitrile] | 1 to 50 | 1 to 50 | 1 to 50 | 1 to 50 | 1 to 50 | 0.1 to 50 | 50 to 200 | 200 to 1000 | 0.1 to 50 |
| C[C@H](O)CNC1(C)CN(c2ncc(-c3n[nH]c4ccc(O[C@H](C)c5c(Cl)cncc5Cl)cc34)cc2C#N)C1 [Example 57, 5-(5-((R)-1-(3,5-dichloropyridin-4-yl)ethoxy)-1H-indazol-3-yl)-2-(3-(((S)-2-hydroxypropyl)amino)-3-methylazetidin-1-yl)nicotinonitrile] | 1 to 50 | 1 to 50 | 1 to 50 | 1 to 50 | 1 to 50 | 0.1 to 50 | 50 to 200 | 200 to 1000 | 0.1 to 50 |
| COc1cc2[nH]nc(-c3cnc(N4CC(C)(C)C4)nc3)c2cc1O[C@H](C)c1c(Cl)cncc1Cl [Example 61, 5-[(1R)-1-(3,5-dichloro-4-pyridyl)ethoxy]-3-[2-(3,3-dimethylazetidin-1-yl)pyrimidin-5-yl]-6-methoxy-1H-indazole] | 1 to 50 | 1 to 50 | 1 to 50 | 1 to 50 | 1 to 50 | 0.1 to 50 | 50 to 200 | 50 to 200 | 0.1 to 50 |
| COc1cc2[nH]nc(-c3cnc(N4CC(C)(NC(C)C)C4)nc3)c2cc1O[C@H](C)c1c(Cl)cncc1Cl [Example 82, (R)-1-(5-(5-(1-(3,5-dichloropyridin-4-yl)ethoxy)-6-methoxy-1H-indazol-3-yl)pyrimidin-2-yl)-N-isopropyl-3-methylazetidin-3-amine] | 1 to 50 | 1 to 50 | 1 to 50 | 1 to 50 | 1 to 50 | 0.1 to 50 | 0.1 to 50 | 0.1 to 50 | 0.1 to 50 |
| C[C@@H](Oc1ccc2[nH]nc(-c3cnc(N4CC(C)(NC(=O)CN(C)C)C4)c(C#N)c3)c2c1)c1c(Cl)cncc1Cl [Example 87, (R)-N-(1-(3-cyano-5-(5-(1-(3,5-dichloropyridin-4-yl)ethoxy)-1H-indazol-3-yl)pyridin-2-yl)-3-methylazetidin-3-yl)-2-(dimethylamino)acetamide] | 1 to 50 | 1 to 50 | 50 to 300 | 1 to 50 | 1 to 50 | 0.1 to 50 | 200 to 1000 | 200 to 1000 | 50 to 200 |
